Measurements taken from patent EP2699223B1, “NEW COSMETIC USES OF GHK TRIPEPTIDE” (Sederma, priority 2011, dated 2012).
Peptide text beside a SMILES is read from it. * marks the point of attachment. Biotin = O=C1N[C@H]2[C@H](CS[C@H]2CCCCC(=O)*)N1

Tests used:
Type in all cases: in vivo, female volunteers
lashes [1] = assay: Blind clinical evaluation of lash photos by 3 trained experts (lengthening, thickening); details: summary statement
Method: Concurrent to this quantitative metrological study, two other evaluations were performed: one clinical evaluation in which trained experts scored photos and another evaluation in which the volunteers themselves evaluated the perceived effects using a multi-item questionnaire.
(§1) This was a double-blind study that employed non-invasive methods. 30 female volunteers used two mascaras: 1) VOLUMISING BLACK MASCARA (according to Example 1) containing 0.00066% of Biot-GHK and 0.01% of panthenol on one eye and 2) its placebo on the other eye (same formula without the active ingredients of the invention).
Table 3: Blind evaluation performed by 3 trained experts on lash lengthening in photos of 30 volunteers.
Table 4: Blind evaluation performed by 3 trained experts on increased lash diameter in photos of 30 volunteers

lashes [2] = assay: Lash diameter by photo measurement and image analysis, same double-blind clinical study; details: after 30 days of daily use; 2% in a basic mascara formula
Method: (§2) Lashes were photographed in a precise manner that could be reproduced and at a special angle so that lashes could be viewed perfectly. An image analysis was then performed on these photographs to quantify lash length and diameter in the central segment of the lids of female volunteers.
as §1
The measurements were performed before application (TO) then after 15 and 30 days of daily application. Application during the eight hours preceding a measurement day was not allowed.
The volunteers had to apply each mascara as follows: 3 brush strokes to the outside lashes, 4 brush strokes to the central lashes and 3 brush strokes to the interior lashes. […]
Once the head was correctly positioned on an appropriate mechanism, the lashes were frontally photographed using a Reflex Nikon D300 (12.3 megapixel) digital camera with a "macro" (60 mm F/2.8 GED) lens and a flash. The images were analysed with special software. […] The lengths and diameters were measured on the lashes of segments S2, S3 and S4 (5 lashes per segment) on each side. […]

lashes [3] = assay: Lash length by photo measurement and image analysis, double-blind clinical study, mascara on one eye versus placebo on the other; details: length and diameter, 15 and 30 days
Method: The purpose of the clinical study was to evaluate the following among volunteers: • lash lengthening, • lash thickening, • reinforcement of lash anchorage (decrease in lash loss during mascara removal).
as §2, §1
The measurements were performed before application (TO) then after 15 and 30 days of daily application. Application during the eight hours preceding a measurement day was not allowed. […]
Once the head was correctly positioned on an appropriate mechanism, the lashes were frontally photographed using a Reflex Nikon D300 (12.3 megapixel) digital camera with a "macro" (60 mm F/2.8 GED) lens and a flash. The images were analysed with special software. […] The lengths and diameters were measured on the lashes of segments S2, S3 and S4 (5 lashes per segment) on each side.

## NCCCC[C@H](NC(=O)[C@H](Cc1c[nH]cn1)NC(=O)CNC(=O)CCCC[C@@H]1SC[C@@H]2NC(=O)N[C@@H]21)C(=O)O [Biot-GHK peptide, Biotinoyl tripeptide-1] (Biotin-Gly-His-Lys-OH)
Lashes [1]
  Subjects in whom the variation was observed (first of "respectively": length): 87%
  Subjects in whom the variation was observed (second of "respectively": diameter, printed volume): 73%
Lashes [2]
  Increase printed as "volume": +14.2 mm^3
Lashes [3]
  Result higher than the increase of parameters with the placebo: about 60%
